Data from publication PMC9598656, “In Vitro Activity of Robenidine Analogues NCL259 and NCL265 against Gram-Negative Pathogens” (Antibiotics, 2022).
Values after ≈ are worked out from the molar mass of the structure shown.

Columns and labels:
E. coli ATCC 10763 = experiment: MIC, broth micro-dilution; type: cell-based, Escherichia coli; settings: Escherichia coli, ATCC10763, read-out: MIC, Single Drug
Procedure: (§1) A variety of Gram-negative reference strains (E. coli ATCC 25922, E. coli ATCC 10763, P. aeruginosa PAO1, P. aeruginosa ATCC 27853, A. baumannii ATCC 12457, A. baumannii ATCC 19606, K. pneumoniae ATCC 4352 and K. pneumoniae ATCC 33495) were used for initial screening and combination testing with PMB. The organisms were speciated using biochemical testing and MALDI-TOF mass spectrometry (Bruker, Preston, VIC, Australia). Activity testing of NCL259 and NCL265 was also carried out on 51 extraintestinal clinical E. coli isolates from companion animals, and 83 porcine and bovine enterotoxigenic E. coli (ETEC) isolates from the Australian Centre for Antimicrobial Resistance Ecology collection. E. coli wild-type (BW 25113) and its mutant BW 25113∆AcrB, in which the inner membrane component AcrB of the tripartite multidrug efflux system AcrA/AcrB/TolC has been deleted, were obtained from the bacterial collection held at Health and Biomedical Innovation, Clinical and Health Sciences, The University of South Australia. All isolates were cultured on sheep blood agar (SBA) plates at 37 °C for 18 h before being subcultured into Luria Bertaini (LB) (Oxoid, Scoresby, VIC, Australia) broth and grown to A600nm = 0.5 (equivalent to approx. 1.5 × 10^8 colony-forming units (CFU)/mL).
(§2) MICs for NCL259 and NCL265 (serial two-fold dilutions commencing at 256 µg/mL) were determined (in duplicate) in round bottom 96–well microtitre trays (Sarstedt 82.1582.001), using the broth micro-dilution method recommended by the Clinical and Laboratory Standards Institute (CLSI). We have shown previously that robenidine can chelate calcium ions from cation-adjusted Mueller-Hinton broth, which causes the loss of activity of robenidine. Therefore, LB broth was used in this study. Additionally, considering the low solubility of robenidine and its analogues in aqueous solutions, two-fold serial dilutions of stock solutions of these compounds were prepared in 100% DMSO [21]. The MIC for ampicillin against each isolate was determined for each test to serve as an internal quality control. The MICs of isolates were determined by visual reading and using an EnSpire Multimode Plate Reader 2300 at A600nm.

E. coli ATCC 25922 = experiment: MIC, broth micro-dilution; type: cell-based, Escherichia coli; settings: Escherichia coli, ATCC25922, read-out: MIC, Single Drug
Procedure: as §1, §2

[1] = test system: HEL 299 (non-cancerous human lung fibroblast cell line); experiment: In vitro cytotoxicity, WST-1; type: cell-based; settings: HEL 299, 24 h
Text: (§3) Potential toxicity of NCL259 and NCL265 to mammalian cells relative to the parent compound (NCL812) was examined using Caco-2 (human colorectal adenocarcinoma cell line), HEL 299 (non-cancerous human lung fibroblast cell line), Hep G2 (human hepatocellular carcinoma cell line), MCF-7 (human mammary gland adenocarcinoma cell line), MDBK (normal Madin–Darby bovine kidney cell line) and Vero (normal adult African green monkey cell line), essentially as described previously. Toxicity to the cell lines was performed using serial two-fold dilutions of each compound from 128 to 1 μg/mL in duplicates in flat bottom 96 well tissue culture trays (Sarstedt 83.3924) containing approximately 2 × 10^4 cells per well in antibiotic-free Dulbecco’s Modified Eagle’s Medium (DMEM; Gibco Cat No: 12430; Thermo Fisher Scientific, Scoresby, VIC, Australia) consisting of 10% (v/v) fetal bovine serum at 37 °C, 5% CO2 for 24 h. Duplicate wells containing ampicillin at 128 to 1 μg/mL were used as controls. Thereafter, 10% (v/v) of the WST-1 cell proliferation assay reagent (Cat No: 05015944001; Roche Life Science, North Ryde, NSW, Australia) was added to each well, the trays were further incubated at 37 °C, 5% CO2 for 1 h and absorbance read at A450nm on a Multiskan Ascent 354 Spectrophotometer (Labsystems, Lilydale, VIC, Australia). The inhibitory concentration of each compound was determined as the half maximal inhibitory concentration (IC50) at A450nm.

[2] = test system: Hep G2 (human hepatocellular carcinoma cell line); experiment: In vitro cytotoxicity, WST-1; type: cell-based; settings: HepG2, 24 h
Text: as §3

[3] = test system: MCF-7 (human mammary gland adenocarcinoma cell line); experiment: In vitro cytotoxicity, WST-1; type: cell-based; settings: MCF7, 24 h
Text: as §3

[4] = test system: MDBK (normal Madin–Darby bovine kidney cell line); experiment: In vitro cytotoxicity, WST-1; type: cell-based; settings: Bos taurus, 24 h
Text: as §3

[5] = test system: Gram-negative reference strains; experiment: Checkerboard with PMB over the reference strains; type: cell-based; settings: sub-inhibitory PMB
Procedure: MICs of NCL259 or NCL265 in the presence of the efflux pump inhibitor, PAβN were determined using a checkerboard assay. […] Briefly, a two-fold serial dilution of each antimicrobial solution was prepared in its appropriate solvent (e.g., DMSO for robenidine analogues and Milli-Q water for PAβN), and 1 μL of each dilution was added from wells 12 to 3 (12.8–0.25 μg/mL for robenidine analogues, and 32–2 μg/mL for PAβN). Thereafter, 89 μL of LB broth was added to each well followed by the addition of 10 μL of bacterial suspension (1–5 × 10^6 CFU/mL) to each well. In this manner, the final concentration of DMSO in each well was 1%. The plate was subsequently incubated at 37 °C for 24 h. The resazurin assay was used for assessment of drug susceptibility of NCL259 and NCL265 (Supplementary Table S1–S6). The same method was also used to test the MICs of NCL259 or NCL265 in the presence of PMB against a range of Gram-negative reference strains (E. coli ATCC 25922, E. coli ATCC 10763, P. aeruginosa PAO1, P. aeruginosa ATCC 27853, A. baumannii ATCC 12457, A. baumannii ATCC 19606, K. pneumoniae ATCC 4352 and K. pneumoniae ATCC 33495). […] The interaction of two antibiotics was calculated as the fractional inhibitory concentration index (FICI) using the following formula:(1) FICI=MICA in combination/MICA alone+MICB in combination/MICB alone where A is NCL259 or NCL265 and B is PAβN or PMB. […]

[6] = first of two independent experiments
[7] = second of two independent experiments

[H]/N=C(\N)NN=C(CC1CCCCC1)c1ccc(Cl)cc1 [NCL259, (E)-2-(1-(4-chlorophenyl)-2-cyclohexylethylidene)hydrazine-1-carboximidamide]
MIC (E. coli ATCC 10763): 64 µg/mL
MIC (E. coli ATCC 25922): 16 µg/mL
IC50 [1, 6]: < 2 µg/mL
IC50 [1, 7]: < 2 µg/mL
IC50 [2, 6]: < 1 µg/mL
IC50 [2, 7]: < 1 µg/mL
IC50 [3, 6]: 3 µg/mL (≈ 10.2 µM)
IC50 [3, 7]: 6 µg/mL (≈ 20.5 µM)
IC50 [4, 6]: 2 µg/mL (≈ 6.83 µM)
IC50 [4, 7]: 2 µg/mL (≈ 6.83 µM)
reduction of MIC in combination with PMB [5]: 8- to 256 fold

[H]/N=C(\N)NN=C(CCCCCC)c1ccc(Cl)cc1 [NCL265, (E)-2-(1-(4-chlorophenyl)heptylidene)hydrazine-1-carboximidamide]
MIC (E. coli ATCC 10763): 64 µg/mL
MIC (E. coli ATCC 25922): 4 µg/mL
IC50 [1, 6]: < 2 µg/mL
IC50 [1, 7]: < 2 µg/mL
IC50 [2, 6]: < 1 µg/mL
IC50 [2, 7]: < 1 µg/mL
IC50 [3, 6]: < 1 µg/mL
IC50 [3, 7]: 6 µg/mL (≈ 21.4 µM)
IC50 [4, 6]: 3 µg/mL (≈ 10.7 µM)
IC50 [4, 7]: 2 µg/mL (≈ 7.12 µM)
reduction of MIC in combination with PMB [5]: 4- to 256 fold
